Experimental data from paper PMC10895678 (Journal of Medicinal Chemistry, 2024).
Read-outs that look alike come from different tables or passages of the source.

Tests used:
M. smegmatis = assay: Inhibition of macromolecular synthesis (radiolabeled precursor incorporation); format: cell-based, Mycobacterium smegmatis
Procedure: Inhibition of macromolecular biosynthesis was assayed by measuring the incorporation of radiolabeled precursors into DNA, RNA, protein, peptidoglycan, and fatty acids in the 10% trichloroacetic acid (TCA) extracts of cells exposed to azetidines. M. smegmatis were cultured in 7H9 media supplemented with 0.05% Tween-80 and grown to an OD600 of 0.4. Cultures (5 mL) were then transferred into sterile glass tubes and preincubated with 0× , 0.5× , 0.75× and 1 × MIC99 azetidines for 1 h at 37 °C with shaking. After preincubation, 10 μL of 500 nCi/μL [methyl-^3H]thymidine, 500 nCi/μL [5,6-^3H]uridine, 500 nCi/μL L-[4,5-^3H]leucine, 500 nCi/μL [^3H]meso-diaminopimelic acid, and 500 nCi/μL [^14C]acetic acid were added to cultures to measure synthesis of DNA, RNA, protein, peptidoglycan and lipids, respectively. All cultures were incubated for 36 h, and 100 μL samples were sacrificed at 6, 12, 24, and 36 h time points by the addition of 50 μL 30%TCA/70% ethanol in Eppendorf tubes. Tubes were incubated at room temperature for 60 min to allow for precipitation of macromolecular material. Samples were individually vacuum filtered using 0.025 μm membrane filters (VSWP01300, MF-Millipore) that were prewashed with 500 μL 70% ethanol. Samples were washed with 3 × 500 μL 5% TCA, followed by 2 × 95% ethanol. Filter papers were dried and combined with 5 mL of scintillation fluid before measuring radioactive counts.

BCG pTIC6-fbpA = format: cell-based, Mycobacterium bovis BCG
BCG pTIC6-fbpC = format: cell-based, Mycobacterium bovis BCG
BCG = format: cell-based, Mycobacterium bovis BCG
BCG pVV16-mmpL3 = format: cell-based, Mycobacterium bovis BCG
HepG2 cells = assay: HepG2 mitochondrial dysfunction (Glu/Gal cytotoxicity, MTT); format: cell-based; conditions: glucose medium
Procedure: Compounds were solubilized to 30 mM in DMSO. The BGAz compounds were added to the HepG2 cell model in a 96-well microplate in half log dilutions from 100–0.0003 μM (final DMSO concentration 0.3%) using both glucose (DMEM consisting of 25 mM glucose) and galactose (DMEM consisting of 10 mM galactose) media. The compounds were incubated with the cell line for 24 h at 37 °C in a humidified CO2 tissue culture incubator, followed by cell viability staining with MTT (3-(4,5-dimethylthiazol-2-yl)-2.5-diphenyltetrazolium bromide) conversion to the Formazan product, determined by absorbance measurement. The cell viability IC50 was determined in HepG2 glucose and metabolism-modified HepG2 galactose, and the fold change difference between the Glu/Gal IC50 was determined. All experiments were performed in duplicate with the mitochondrial toxicity controls rotenone and Antimycin A and the cytotoxin control tamoxifen.

CNCC1CC(c2ccc(OC(F)(F)F)cc2)N1Cc1ccccc1OC(F)(F)F (stereo not shown) [BGAz-005]
loss of lipid biosynthesis ([14C]-acetic acid incorporation) (M. smegmatis; 0.5 × MIC): ~50% | loss of lipid biosynthesis ([14C]-acetic acid incorporation) (M. smegmatis; 1 × MIC): ~75% | reduction of incorporation of [3H]-thymidine, [3H]-uridine, [3H]-leucine (M. smegmatis; 1 × MIC): 20% | effect on incorporation of [3H]-thymidine, [3H]-uridine, [3H]-leucine (M. smegmatis; up to 0.75 × MIC): almost no effect | BCG pTIC6-fbpA MIC (BCG pTIC6-fbpA): 25 µM | BCG pTIC6-fbpC MIC (BCG pTIC6-fbpC): 50 µM | increase in MIC upon overexpression of FbpC (BCG pTIC6-fbpC): two-fold increase | TMM and TDM in cell envelope lipids (BCG; 0.5 × MIC): significant reduction | TMM and TDM in cell envelope lipids (BCG; concentrations beyond the MIC): complete loss

FC(F)(F)Oc1ccc(C2CC(CN3CCCC3)N2Cc2ccccc2OC(F)(F)F)cc1 (stereo not shown) [BGAz-002]
BCG pVV16-mmpL3 MIC (BCG pVV16-mmpL3): 25 µM

Brc1cc(Br)cc(C2CC(CN3CCCC3)N2Cc2ccccc2Br)c1 (stereo not shown) [BGAz-004]
HepG2 cytotoxicity (in words) (HepG2 cells): negligible effect | BCG pTIC6-fbpA MIC (BCG pTIC6-fbpA): 20 µM | BCG pTIC6-fbpC MIC (BCG pTIC6-fbpC): 34 µM | increase in MIC upon overexpression of FbpC (BCG pTIC6-fbpC): two-fold increase | BCG pVV16-mmpL3 MIC (BCG pVV16-mmpL3): 40 µM | TMM and TDM in cell envelope lipids (BCG; 0.5 × MIC): significant reduction
